Entries after “also recorded” stand apart in the source; their conditions may differ.
Legend:
Assay type in all cases: in vivo, mouse
TPH2 mRNA [1] = assay: TPH2 mRNA levels in raphe slice preparations from intact male mice by real-time RT-PCR
Method: Ovariectomized C57/BL6 female mice (13 to 16 wks of age) were from Charles River Laboratories and intact C57/BL6 male mice (13 to 16 wks of age) were from Taconic Laboratories. Animals were fed a soy-free rodent chow and allowed a minimum of one week to recuperate from surgery and shipping. Mice were dosed subcutaneously in the morning (once daily for 4 days) with 0.1 cc of vehicle (sesame oil) or compound (dose is indicated for each experiment). Approximately six hours following the fourth dose, mice were deeply anesthetized with ketamine/xylazine.
For real-time RT-PCR analyses brains were removed from the skull, placed ventral side up in a mouse brain block on ice, and ice-cold razor blades are inserted into the block at 1 mm intervals. The caudal extent of the hypothalamus was used as an anatomical marker for the placement of the first razor blade, and 4 blades are placed in sequential slots, caudally. The four sections are examined and the two that encompass the greatest extent of the dorsal raphe are placed in a tube containing RNA-later and placed at 4° C. overnight. Brain slices were removed from RNALATER (Ambion) after 24 hr and stored at −80° C. in fresh tubes. An n of seven animals was used per treatment group for real-time RT-PCR studies. For in situ hybridization histochemistry brains are removed from the skull and placed ventral side up on powdered dry ice and frozen brains are stored at −80° C. until sectioning. An n of 5 to 6 animals was used per treatment group for in situ hybridization histochemistry analyses.
The murine TPH2 primers were mTPH2-514F and mTPH2-585R and the murine TPH2 probe was mTPH2-565T. mTPH2-565T was labeled with the fluorescent dye FAM and the quencher TAMRA.
Isolation of total RNA from murine raphe slices for TAQMAN analysis has been described in Example 2. Genomic DNA was removed from the total RNA samples using the DNA-FREE kit (Ambion) and cDNA synthesis performed using Multiscribe RT and the TaqMan Gold RT reagents (ABI). Reverse transcription was halted by the addition of EDTA. Samples were transferred to a storage plate and stored at −20° C.
Real-time PCR analyses using TAQMAN was as follows. A 2.5 μL of cDNA was added to each well of a 96well plate with 22.5 μl of TaqMan® reaction mix (1× Universal Master Mix (ABI), 20 nM forward and reverse 18S rRNA control primers, and 100 nM 18S rRNA control probe (ABI) and 300 nM mTPH2-514F and mTPH2-585R primers, 200 nM mTPH2-565T probe. Samples were run on an ABI PRISM 7700 Sequence Detection Instrument (Applied Biosystems (ABI), Foster City, Calif.) and collected data was analyzed using Merck Biometrics TAQMAN Plus program and statistical significance determined using a one-way ANOVA (CMG, Merck Biometrics).

TPH2 mRNA [2] = assay: TPH2 mRNA in murine DRN by in situ hybridization histochemistry; details: for reduction of TPH2 mRNA levels in DRN (densitometry): ovariectomized female mice, FIG. 13B
TPH1 mRNA [3] = assay: TPH1 mRNA levels in murine raphe slice preparation by real-time RT-PCR
Description: Female mice (13 to 16 wks of age) were ovariectomized (C57BL/6s from Charles River; ER Knockout animals from Taconic). Animals were fed a soy-free rodent chow and allowed a minimum of one week to recuperate from surgery and shipping. […] Approximately six hours following the fourth dose, mice were deeply anesthetized with ketamine/xylazine and brains were removed from the skull, placed ventral side up in a mouse brain block on ice, and ice-cold razor blades were inserted into the block at 1 mm intervals. The caudal extent of the hypothalamus was used as an anatomical marker for the placement of the first razor blade, and 4 blades were placed in sequential slots, caudally. The four sections were examined and the two that encompassed the greatest extent of the dorsal raphe were placed in a tube containing RNALATER (Ambion, Austin, Tex.) and placed at 4° C. overnight. Brain slices were removed from RNALATER after 24 hours and stored at −80° C. in fresh tubes.
Isolation of total RNA from mouse raphe slices for real-time PCR analysis using the TAQMAN ABI PRISMS 7700 Detection System, Applied Biosystems, Foster City, Calif. was as follows. Samples were stored in RNALATER at 4° C. overnight followed by removal of RNALATER and storage at −80° C. until isolation of the total RNA (2 slices weigh 25 to 50 mg). Slices were removed from −80° C. and placed in 1.0 mL TRIZOL Reagent in FASTPREP processing tubes. Slices were homogenized with one pass at setting 6 for 30 seconds in FASTPREP 120 homogenizer using LYSING MATRIX D tubes with bead matrix followed by 20 seconds at setting 6 after all samples had been processed. Samples were set at room temperature for 5 minutes to allow for complete dissociation of nucleoprotein complexes followed by centrifugation of the samples at 12,000×g for 5 minutes at 4° C. Homogenates were transferred to 1.5 mL; microcentrifuge tubes and 100 μL BCP (Bromo-3-chloropropane) was added. Samples were vortexed for 15 seconds and set at room temperature for 2 to 3 minutes. Samples were centrifuged at 12,000×g for 15 minutes at 4° C. The aqueous layer was removed and placed in a new RNAse-free sterile 1.5 mL microcentrifuge tube. Five μL of 5 mg/μL glycogen was added to each sample and the samples were vortexed. Five hundred μL of isopropanol was added to each sample. The samples were vortexed for 15 seconds, set at room temperature 10 minutes, followed by centrifugation at 12,000×g for 15 minutes at 4° C. Supernatants were decanted and pellets washed with 500 μL ice cold 75% ethanol. Samples were centrifuged at 12,000×g for 15 minutes at 4° C., ethanol decanted, and pellets air dried for 10 minutes. Pellets were resuspended in 30 μL prewarmed RNASECURE (60° C.), and heated at 60° C. for 10 min. Samples were stored at −80° C. until DNAse treatment and cDNA synthesis.
DNase treatment and cDNA preparation with wt mouse raphe slice total RNA for TAQMAN analysis. DNase treatment using DNA-free kit (Ambion). Five μg of the total RNA sample was aliquotted to each well of a 96 well plate. An 1× DNase I solution was added to each sample (DNase I buffer, DNase I, H2O). Reactions were mixed and incubated at 37° C. for 30 minutes. Reactions were inactivated by addition of DNase inactivation reagent beads, mixed well at room temperature for 3 minutes and centrifuged at 2,500 RPM for 1 minutes at 4° C. (25 μL reactions were run and inactivated with 1/10 volume of inactivation reagent).
Reverse Transcription. A 10 μL of the DNase I-treated total RNA was added to 40 μL of 1× reverse transcription reaction mix (DEPC treated H2O, RT buffer, MgCl2, dNTP mix, random hexamers, RNase inhibitor, and MULTISCRIBE RT) and incubated at 25° C. for 10 minutes, 48° C. for 30 minutes, and 95° C. for 5 minutes. Reverse transcription was halted by the addition of EDTA. Samples were transferred to a storage plate and stored at −20° C. […]

TPH1 mRNA [4] = assay: TPH1 mRNA in murine DRN by in situ hybridization histochemistry (TPH1-892 antisense riboprobe); details: 0.2 mpk s.c. once daily for four days; ovariectomized mice; FIG. 5A

C[C@@H]1C[C@H]2[C@@H]3CCC4=CC(=O)C=C[C@]4(C)[C@@]3(F)[C@@H](O)C[C@]2(C)[C@@]1(O)C(=O)CO [dexamethasone]
reduction in TPH2 mRNA levels (TPH2 mRNA [1]; 1 mpk once daily for four days, FIG. 15): 26% | reduction of TPH2 mRNA levels in DRN (densitometry) (TPH2 mRNA [2]; 3 mg/kg s.c. once daily for four days): 28% | reduction of TPH2 mRNA levels in DRN (densitometry) (TPH2 mRNA [2]; 10 mg/kg s.c. once daily for four days): 36% | effect on TPH1 mRNA levels (TPH1 mRNA [3]; 3 mpk s.c., ovariectomized mice, FIG. 6): no effect

C[C@]12CC[C@@H]3c4ccc(O)cc4CC[C@H]3[C@@H]1CC[C@@H]2O [17β-estradiol]
effect on TPH2 mRNA levels (TPH2 mRNA [1]; dose not stated): no effect | TPH1 mRNA induction in the DRN (TPH1 mRNA [4]): 3 fold | effect on TPH2 mRNA in the DRN (TPH2 mRNA [2]; 0.2 mpk s.c. once daily for four days, ovariectomized mice, TPH2c riboprobe, FIG. 5B): no apparent effect | TPH1 mRNA induction in raphe slice (TPH1 mRNA [3]; 0.2 mpk s.c. once daily for four days, ovariectomized mice, FIG. 6): 1.8 fold | effect on TPH1 mRNA in the DRN (TPH1 mRNA [3]; male and female mice, data not shown): induces

CC#C[C@]1(O)CC[C@H]2[C@@H]3CCC4=CC(=O)CCC4=C3[C@@H](c3ccc(N(C)C)cc3)C[C@@]21C [mifepristone]
effect on the dexamethasone reduction of TPH2 mRNA levels (TPH2 mRNA [1]; co-administered with 1 mg/kg dexamethasone, FIG. 15, 1 mg/kg): blocked; also recorded: antagonizes | effect on TPH2 message levels (TPH2 mRNA [1]; mifepristone alone, 30 mg/kg): no effect | change of TPH1 mRNA levels in response to treatment (TPH1 mRNA [3]; murine raphe slice preparations, dose not stated, FIG. 6): no detectable change

— patent publication US20070274916A1, “Method for Identifying Compounds that Affect Expression of Tryptophan Hydroxylase Isoform 2” (priority 2003, published 2007)
